Experimental data taken from US20190185829A1, “Preparation of lipase with improved ester synthesis activity by using surfactants” (Jiangnan University, priority 2017, published 2019).

Legend:
Type in all cases: biochemical
[1] = target: T1, Rhizoupus oryzae lipase ROL (Rhizopus oryzae, UniProt P61872); experiment: Ester synthesis activity of surfactant-treated lyophilized lipase ROL by GC analysis; conditions: surfactant 10 mM, protein 0.2 mg·mL^−1
T1 construct: purchased Sigma-Aldrich Co., Ltd
Description: (§1) (2) Determination of Ester Synthesis Activity of the Lipase by GC Analysis
(§2) Substrate solution A: 48.5 mL of n-octanoic acid is dissolved in 250 mL of n-heptane in a volumetric flask.
(§3) Substrate solution B: 17.5 mL of absolute ethanol is dissolved in 250 mL of n-heptane in a volumetric flask.
(§4) Internal standard: 2-hexanol/n-heptane (35 g·L^−1).
(§5) Standard sample: 10 g of n-octanoate is dissolved in 1000 mL of n-heptane in a volumetric flask.
(§6) 1 mL substrate solution A and substrate solution B are added in a 5 mL Eppendorf tube respectively, then 20 mg lipase powder (or lyophilized powder) is added. The reaction is carried out at 40° C. and with shaking at 150 rpm for 30 min. Remove the lipase powder by centrifugation or membrane filtration. Then 0.1 mL of internal standard is added in 0.4 mL of filtrate or supernatant and mixed. Measure the content of n-octanoate in the mixture above by GC analysis.
(§7) The gas chromatograph (6820, Agilent Instruments) is equipped with a AC20 (PEG20000) capillary column and a FID detector. Nitrogen was used as the carrier gas. The oven temperature was programmed to start at 90° C. for 1 min and then be elevated to 200° C. for 5 min at 10° C.·min^−1. The injector and detector temperatures were set at 250° C.
(§8) Definition of enzyme activity: One unit of ester synthesis activity is defined as the amount of enzyme that esterifies 1 micromole of n-octanoate per min.
(§9) Specific activity: the activity of lipase per milligram of total protein in the lipase preparation.
(§10) Total recovery: the percentage of the activity after a treatment to that before the treatment
(§11) Add an equal volume of high-concentration surfactant solution into the enzyme solution. The final protein concentration was […] and the surfactant concentration was 10 mM. After mixed thoroughly, the mixture was lyophilized and kept in dry condition.
(§12) Commercial lipase ROL was purchased from Sigma-Aldrich Co., Ltd. ROL is a non-immobilized lipase. Dissolve the ROL powder in water and centrifuge to obtain the supernatant containing the ROL lipase that would be regulated to improve its ester synthesis activity by adjusting the final protein concentration to 0.2 mg·mL^−1 and adding surfactants to the final concentration of 10 mM.
(§13) Commercial lipase ROL was purchased from Sigma-Aldrich Co., Ltd. and is a non-immobilized lipase. Dissolve the ROL powder in water, centrifuge to obtain the supernatant and treat the supernatant with different concentrations of surfactant LPC14 (the final protein concentration was 0.2 mg·mL^−1).

[2] = target: T2, Pseudomonas cepacia lipase PCL (Burkholderia cepacia, UniProt P22088); experiment: Hydrolytic activity of surfactant-treated lipase PCL using pNPP as substrate; conditions: protein 0.2 mg·mL^−1
T2 construct: purchased Sigma-Aldrich Co., Ltd
Description: (§14) (1) Determination of Hydrolytic Activity of the Lipase Using p-Nitrophenyl Palmitate (pNPP) as Substrate
(§15) Hydrolysis of pNPP catalyzed by lipase generates p-nitrophenol and palmitic acid. p-nitrophenol appears yellow in the buffer at pH 8.0 with the maximum absorption peak at 410 nm. Determination of hydrolytic activity can be achieved by measuring the absorbance at 410 nm.
(§16) The substrate solution A: 50 mmol·L^−1 sodium phosphate buffer (pH 8.0) containing 1.16 g·L^−1 sodium deoxycholate and 0.56 g·L^−1 arabic gum. Substrate solution B: 0.015 g pNPP is dissolved in 5 mL isopropyl alcohol. Substrate solution A and substrate solution B are mixed then stored for use afterwards.
(§17) Termination solution: 40 g·L^−1 NaOH, 93.05 g·L^−1 EDTA sodium. Add 62 uL termination solution to the reaction mixture when stopping the reaction.
(§18) Add 0.1 mL appropriately diluted enzyme solution, which is substituted by inactivated enzyme solution as the control, to 2.4 mL substrate solution above, incubate the mixture at 40° C. for 2 min and measure the absorbance at 410 nm.
(§19) one hydrolytic activity unit is defined as the amount of enzyme that catalyzes the formation of 1 μmol of p-nitrophenol in 1 minute at 40° C.
(§20) enzyme activity (U·mL^−1)=(V×A410×10^6)/(ε×t×V′) Calculation equation: […]
(§21) Specific activity: the activity of lipase per milligram of total protein in the lipase preparation. […]
as §12, with “PCL” for “ROL”, “the” for “its”
(§22) Commercial lipase PCL was purchased from Sigma-Aldrich Co., Ltd. and is a non-immobilized lipase. Dissolve the PCL powder in water, centrifuge to obtain the supernatant and treat the supernatant with different concentrations of surfactant DDM (the final protein concentration was 0.2 mg·mL^−1).

[3] = target: T3, Candida antarctica lipase CALB (Moesziomyces antarcticus, UniProt P41365); experiment: Ester synthesis activity of surfactant-treated lyophilized lipase CALB by GC analysis; conditions: protein 0.12 mg·mL^−1
T3 construct: purchased Sigma-Aldrich Co., Ltd
Description: as §1, §2, §3, §4, §5, §6, §7, §8, §9, §10, §11
as §12, with “CALB” for “ROL”, “the” for “its”, “0.12” for “0.2”
(§23) Commercial lipase CALB was purchased from Sigma-Aldrich Co., Ltd. and is a non-immobilized lipase. Dissolve the CALB powder in water, centrifuge to obtain the supernatant and treat the supernatant with different concentrations of surfactant DDM (the final protein concentration was 0.12 mg·mL^−1).

[4] = system: Rhizopus chinensis lipase r27RCL; experiment: Ester synthesis activity of surfactant-treated lyophilized lipase r27RCL by GC analysis; conditions: surfactant 10 mM, protein 0.2 mg·mL^−1
Description: as §1, §2, §3, §4, §5, §6, §7, §8, §9, §10, §11
(§24) Commercial lipase r27RCL was purchased from Jiangsu Yiming Biological Technology Co., Ltd, which has high hydrolytic activity and low ester synthesis activity. Dissolve the r27RCL powder in water and centrifuge to obtain the supernatant containing the r27RCL lipase to adjust the ester synthesis activity (the final protein concentration was 0.2 mg·mL^−1 and the final concentration of surfactant was 10 mM, which is between 0.1×CMC^˜200×CMC of the different surfactants in Table 1).
(§25) Commercial lipase r27RCL was purchased from Jiangsu Yiming Biological Technology Co., Ltd. r27RCL is a lipase with high hydrolytic activity but low ester synthesis activity. Dissolve the r27RCL powder in water, centrifuge to obtain the supernatant and treat the supernatant with different concentrations of surfactant LPC14 (the final protein concentration was 0.2 mg·mL^−1).

[5] = target: T2, Pseudomonas cepacia lipase PCL; experiment: Ester synthesis activity of surfactant-treated lyophilized lipase PCL by GC analysis; conditions: protein 0.2 mg·mL^−1
Description: as §1, §2, §3, §4, §5, §6, §7, §8, §9, §10, §11
as §12, with “PCL” for “ROL”, “the” for “its”
as §22

[6] = target: T3, Candida antarctica lipase CALB; experiment: Hydrolytic activity of surfactant-treated lipase CALB using pNPP as substrate; conditions: protein 0.12 mg·mL^−1
Description: as §14, §15, §16, §17, §18, §19, §20, §21
as §12, with “CALB” for “ROL”, “the” for “its”, “0.12” for “0.2”
as §23

[7] = system: Rhizopus chinensis lipase r27RCL; experiment: Hydrolytic activity of surfactant-treated lipase r27RCL using pNPP as substrate; conditions: surfactant 10 mM, protein 0.2 mg·mL^−1
Description: as §14, §15, §16, §17, §18, §19, §20, §21, §24, §25

[8] = target: T1, Rhizoupus oryzae lipase ROL; experiment: Hydrolytic activity of surfactant-treated lipase ROL using pNPP as substrate; conditions: surfactant 10 mM, protein 0.2 mg·mL^−1
Description: as §14, §15, §16, §17, §18, §19, §20, §21, §12, §13

[9] = surfactant concentration 0.1 x CMC
[10] = surfactant concentration 1 x CMC
[11] = surfactant concentration 10 x CMC
[12] = surfactant concentration 100 x CMC

T2 sequence (P22088 45-364): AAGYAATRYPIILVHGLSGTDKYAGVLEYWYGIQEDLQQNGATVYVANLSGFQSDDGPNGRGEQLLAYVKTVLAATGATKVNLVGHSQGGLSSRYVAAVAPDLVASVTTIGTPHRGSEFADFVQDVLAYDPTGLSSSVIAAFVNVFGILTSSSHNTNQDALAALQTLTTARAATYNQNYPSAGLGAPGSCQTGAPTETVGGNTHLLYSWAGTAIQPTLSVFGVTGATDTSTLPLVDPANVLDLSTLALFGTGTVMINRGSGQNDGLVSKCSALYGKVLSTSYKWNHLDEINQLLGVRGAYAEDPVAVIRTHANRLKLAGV
T1 sequence (P61872 96-392): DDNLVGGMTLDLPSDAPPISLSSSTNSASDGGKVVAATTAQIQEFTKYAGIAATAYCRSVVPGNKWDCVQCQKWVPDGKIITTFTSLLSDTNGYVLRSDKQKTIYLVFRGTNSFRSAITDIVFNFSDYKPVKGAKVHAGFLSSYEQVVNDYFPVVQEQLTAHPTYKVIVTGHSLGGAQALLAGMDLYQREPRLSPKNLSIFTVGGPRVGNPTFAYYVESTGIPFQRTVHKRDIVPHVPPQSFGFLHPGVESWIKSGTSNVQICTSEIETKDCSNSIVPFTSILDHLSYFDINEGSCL
T3 sequence (P41365 26-342): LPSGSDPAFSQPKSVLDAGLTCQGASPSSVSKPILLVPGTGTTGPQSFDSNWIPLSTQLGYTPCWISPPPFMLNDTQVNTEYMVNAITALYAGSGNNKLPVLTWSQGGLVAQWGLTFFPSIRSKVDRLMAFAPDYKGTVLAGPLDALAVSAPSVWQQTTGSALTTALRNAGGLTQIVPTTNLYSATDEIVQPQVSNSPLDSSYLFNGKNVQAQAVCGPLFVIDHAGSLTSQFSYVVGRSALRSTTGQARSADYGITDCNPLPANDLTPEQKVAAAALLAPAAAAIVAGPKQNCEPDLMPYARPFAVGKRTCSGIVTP

SMILES: CCCCCCCCCCCCOCCOCCOCCOCCOCCOCCOCCOCCO [C12E8, octaethylene glycol monododecyl ether]
- Ester synthesis activity, Specific activity [1]: 2.6 U · mg^−1
- Hydrolytic activity, Specific activity ([2]; surfactant 10 mM): 281.1 U · mg^−1
- Hydrolytic activity, Total recovery ([2]; surfactant 10 mM): 98%
- Ester synthesis activity, Specific activity ([3]; surfactant 10 mM): 62.8 U · mg^−1
- Ester synthesis activity, Specific activity [4]: 22.2 U · mg^−1
- Ester synthesis activity, Specific activity ([5]; surfactant 10 mM): 4.6 U · mg^−1
- Ester synthesis activity, Total recovery ([5]; surfactant 10 mM): 130%
- Hydrolytic activity, Specific activity ([6]; surfactant 10 mM): 0 U · mg^−1
- Hydrolytic activity, Total recovery ([6]; surfactant 10 mM): 0%
- Hydrolytic activity, Specific activity [7]: 117.1 U · mg^−1
- Hydrolytic activity, Total recovery [7]: 101%
- Hydrolytic activity, Specific activity [8]: 23.7 U · mg^−1
- Hydrolytic activity, Total recovery [8]: 82%

SMILES: C[C@H](CCC(=O)NCCC[N+](C)(C)CCCS(=O)(=O)[O-])[C@H]1CC[C@H]2[C@@H]3[C@H](O)C[C@@H]4C[C@H](O)CC[C@]4(C)[C@H]3C[C@H](O)[C@]12C [CHAPS, 3-[(3-Cholamidopropyl)dimethylammonio]-1-propanesulfonate]
- Ester synthesis activity, Specific activity [1]: 2.6 U · mg^−1
- Hydrolytic activity, Specific activity ([2]; surfactant 10 mM): 248.0 U · mg^−1
- Hydrolytic activity, Total recovery ([2]; surfactant 10 mM): 101%
- Ester synthesis activity, Specific activity ([3]; surfactant 10 mM): 5.9 U · mg^−1
- Ester synthesis activity, Total recovery ([3]; surfactant 10 mM): 44%
- Ester synthesis activity, Specific activity [4]: 13.0 U · mg^−1
- Ester synthesis activity, Total recovery [4]: 105%
- Ester synthesis activity, Specific activity ([5]; surfactant 10 mM): 4.7 U · mg^−1
- Ester synthesis activity, Total recovery ([5]; surfactant 10 mM): 130%
- Hydrolytic activity, Specific activity ([6]; surfactant 10 mM): 1.6 U · mg^−1
- Hydrolytic activity, Total recovery ([6]; surfactant 10 mM): 92%
- Hydrolytic activity, Specific activity [7]: 132.6 U · mg^−1
- Hydrolytic activity, Total recovery [7]: 109%
- Hydrolytic activity, Specific activity [8]: 23.6 U · mg^−1
- Hydrolytic activity, Total recovery [8]: 81%

SMILES: CCCCCCCCCCCCCCCC[N+](C)(C)C.[Br-] [CTAB, hexadecyl trimethyl ammonium bromide]
- Ester synthesis activity, Specific activity [1]: 0 U · mg^−1
- Ester synthesis activity, Total recovery [1]: 0%
- Hydrolytic activity, Specific activity ([2]; surfactant 10 mM): 75.5 U · mg^−1
- Hydrolytic activity, Total recovery ([2]; surfactant 10 mM): 29%
- Ester synthesis activity, Specific activity ([3]; surfactant 10 mM): 36.6 U · mg^−1
- Ester synthesis activity, Total recovery ([3]; surfactant 10 mM): 300%
- Ester synthesis activity, Specific activity [4]: 0 U · mg^−1
- Ester synthesis activity, Total recovery [4]: 0%
- Ester synthesis activity, Specific activity ([5]; surfactant 10 mM): 0 U · mg^−1
- Ester synthesis activity, Total recovery ([5]; surfactant 10 mM): 0%
- Hydrolytic activity, Specific activity ([6]; surfactant 10 mM): 0 U · mg^−1
- Hydrolytic activity, Total recovery ([6]; surfactant 10 mM): 0%
- Hydrolytic activity, Specific activity [7]: 0 U · mg^−1
- Hydrolytic activity, Total recovery [7]: 0%
- Hydrolytic activity, Specific activity [8]: 0 U · mg^−1
- Hydrolytic activity, Total recovery [8]: 0%

SMILES: CCCCCCCCCCCCO[C@@H]1O[C@H](CO)[C@@H](O[C@H]2O[C@H](CO)[C@@H](O)[C@H](O)[C@H]2O)[C@H](O)[C@H]1O [DDM, n-dodecyl-ß-D-maltopyranoside]
- Ester synthesis activity, Specific activity [1]: 2.8 U · mg^−1
- Hydrolytic activity, Specific activity ([2]; surfactant 10 mM): 327.7 U · mg^−1
- Hydrolytic activity, Total recovery ([2]; surfactant 10 mM): 111%
- Hydrolytic activity, Specific activity [2, 9]: 499.5 U · mg^−1
- Hydrolytic activity, Total recovery [2, 9]: 106%
- Hydrolytic activity, Specific activity [2, 10]: 434.7 U · mg^−1
- Hydrolytic activity, Total recovery [2, 10]: 99%
- Hydrolytic activity, Specific activity [2, 11]: 756.7 U · mg^−1
- Hydrolytic activity, Total recovery [2, 11]: 114%
- Hydrolytic activity, Specific activity [2, 12]: 773.5 U · mg^−1
- Hydrolytic activity, Total recovery [2, 12]: 246%
- Ester synthesis activity, Specific activity ([3]; surfactant 10 mM): 101.9 U · mg^−1
- Ester synthesis activity, Specific activity [3, 9]: 4.0 U · mg^−1
- Ester synthesis activity, Total recovery [3, 9]: 12%
- Ester synthesis activity, Specific activity [3, 10]: 14.3 U · mg^−1
- Ester synthesis activity, Total recovery [3, 10]: 50%
- Ester synthesis activity, Specific activity [3, 11]: 37.3 U · mg^−1
- Ester synthesis activity, Total recovery [3, 11]: 73%
- Ester synthesis activity, Specific activity [3, 12]: 32.6 U · mg^−1
- Ester synthesis activity, Total recovery [3, 12]: 189%
- Ester synthesis activity, Specific activity [4]: 31.4 U · mg^−1
- Ester synthesis activity, Specific activity ([5]; surfactant 10 mM): 55.6 U · mg^−1
- Ester synthesis activity, Specific activity [5, 9]: 3.2 U · mg^−1
- Ester synthesis activity, Total recovery [5, 9]: 58%
- Ester synthesis activity, Specific activity [5, 10]: 2.9 U · mg^−1
- Ester synthesis activity, Total recovery [5, 10]: 57%
- Ester synthesis activity, Specific activity [5, 11]: 20.0 U · mg^−1
- Ester synthesis activity, Total recovery [5, 11]: 260%
- Ester synthesis activity, Specific activity [5, 12]: 101.6 U · mg^−1
- Hydrolytic activity, Specific activity ([6]; surfactant 10 mM): 0 U · mg^−1
- Hydrolytic activity, Total recovery ([6]; surfactant 10 mM): 0%
- Hydrolytic activity, Specific activity [6, 9]: 2.1 U · mg^−1
- Hydrolytic activity, Total recovery [6, 9]: 45%
- Hydrolytic activity, Specific activity [6, 10]: 3.0 U · mg^−1
- Hydrolytic activity, Total recovery [6, 10]: 75%
- Hydrolytic activity, Specific activity [6, 11]: 0.7 U · mg^−1
- Hydrolytic activity, Total recovery [6, 11]: 10%
- Hydrolytic activity, Specific activity [6, 12]: 0 U · mg^−1
- Hydrolytic activity, Total recovery [6, 12]: 0%
- Hydrolytic activity, Specific activity [7]: 135.0 U · mg^−1
- Hydrolytic activity, Total recovery [7]: 94%
- Hydrolytic activity, Specific activity [8]: 42.7 U · mg^−1
- Hydrolytic activity, Total recovery [8]: 116%
